How the values were obtained:
[1] = Comparative stability in simulated gastric fluid (SGF), degradation by LCMS; assay type: physicochemical; details: 50° C. SGF, LCMS UV peak areas at 254 nm
Method: The stability of exemplified compounds of the invention were compared with N-(hetero)aryl, 2-(heteroy)aryl-substituted acetamides. Test compounds were dissolved or suspended in a specified media (e.g. simulated gastric fluid (SGF)). The resulting solution or suspension was kept at the testing temperature (e.g. 50° C.) for a given time (e.g. 4 hours), and the extent of degradation was quantified by LCMS using the respective UV absorption peak areas at 254 nm.

[2] = system: Wnt signaling; test: Wnt-Luc reporter assay for pathway inhibition of Wnt signaling; assay type: cell-based, mouse (TM3 Wnt-Luc) or human (293 Wnt-Luc); not stated which; details: Wnt-Luc reporter cells co-cultured with L-cell Wnt3a cells, 24 hours
How it was run: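 Stable STF (Wnt-responsive luciferase) reporter lines, mouse TM3 or human HEK293, co-cultured with Wnt3a-producing L-cells in DMEM with 2% FBS and treated with compound for 24 h. Firefly luciferase read by Bright-Glo; IC50 taken as concentration giving 50% reduction in luminescence.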

[3] = luciferase signal reduced by 50%

IC50 [2, 3] | Structure (SMILES) | also measured
 | O=C(Cc1ccc(-c2ccnnc2)c(C(F)(F)F)c1)Nc1ccc(-c2cccnn2)cn1 [reference compound] | % degradn. @ 4 hr [1]: 11.5%; % degradn. @ 8 hr [1]: 16.6%; % degradn. @ 24 hr [1]: 26.7%
 | Cc1cc(-c2ncc(CNC(=O)c3ccc(-c4cnccn4)cn3)cc2F)ccn1 [drawing 199] | % degradn. @ 4 hr [1]: ~0%; % degradn. @ 8 hr [1]: ~0. %; % degradn. @ 24 hr [1]: ~0%
 | Cc1cc(CC(=O)Nc2ccc(-c3cccc(F)c3)cn2)cnc1-c1ccnnc1 [reference compound] | % degradn. @ 24 hr [1]: 25.0%
 | Cc1cc(CNC(=O)c2ccc(-c3cnccn3)cn2)cnc1-c1ccnc(C(F)(F)F)c1 [drawing 200] | % degradn. @ 24 hr [1]: ~0%
0.26 nM | Cc1cc(CNC(=O)c2ccc(-c3cccc(F)c3)nc2)cnc1-c1ccnc(C(F)(F)F)c1 [compound 47, 6-(3-fluorophenyl)-N-({5-methyl-6-[2-(trifluoromethyl)pyridin-4-yl]pyridin-3-yl}methyl)pyridine-3-carboxamide] | 
2.3 nM | O=C(NCc1ccc(N2CCS(=O)(=O)CC2)nc1)c1ccc(-c2cccc(F)c2)cc1 [compound 3, N-((6-(1,1-dioxidothiomorpholino)pyridin-3-yl)methyl)-3′-fluoro-[1,1′-biphenyl]-4-carboxamide] | 
5.8 nM | Cc1ccc(F)cc1-c1ccc(C(=O)NCc2ccc(-c3ccnc(C(F)(F)F)c3)nc2)nc1 [compound 65, 5-(5-fluoro-2-methylphenyl)-N-({6-[2-(trifluoromethyl)pyridin-4-yl]pyridin-3-yl}methyl)pyridine-2-carboxamide] | 
718 nM | CS(=O)(=O)c1cccc(-c2ccc(C(=O)NCc3ccc(-c4ccnc(F)c4)nc3)nc2)c1 [compound 43, N-((2′-Fluoro-2,4′-bipyridin-5-yl)methyl)-5-(3-(methylsulfonyl)phenyl)picolinamide] | 
1.2 nM | Cc1cc(CNC(=O)c2ccc(-c3cnccn3)nc2)cnc1-c1ccnc(C(F)(F)F)c1 [compound 54, N-({5-methyl-6-[2-(trifluoromethyl)pyridin-4-yl]pyridin-3-yl}methyl)-6-(pyrazin-2-yl)pyridine-3-carboxamide] | 
1.9 nM | O=C(NCc1ccc(-c2ccnnc2)cc1)c1ccc(-c2ccccc2)cc1 [compound 1, N-(4-(pyridazin-4-yl)benzyl)biphenyl-4-carboxamide] | 
19 nM | COC(=O)N1CCN(c2ccc(C(=O)NCc3ccc(N4CCS(=O)(=O)CC4)nc3)cc2)CC1 [compound 7, methyl 4-(4-(((6-(1,1-dioxidothiomorpholino)pyridin-3-yl)methyl)carbamoyl)phenyl)piperazine-1-carboxylate] | 
0.36 nM | O=C(NCc1ccc(-c2ccnc(C(F)(F)F)c2)nc1)c1ccc(-c2cnccn2)cn1 [compound 41, 5-(Pyrazin-2-yl)-N-((2′-(trifluoromethyl)-2,4′-bipyridin-5-yl)methyl)picolinamide] | 
4.4 nM | Cc1cc(-c2ncc(CNC(=O)c3ccn(-c4cccc(F)c4)c(=O)c3)cc2C)ccn1 [compound 88, 1-(3-fluorophenyl)-N-{[5-methyl-6-(2-methylpyridin-4-yl)pyridin-3-yl]methyl}-2-oxo-1,2-dihydropyridine-4-carboxamide] | 
0.2 nM | Cc1cc(-c2ccc(CNC(=O)c3ccc(-c4ccccc4)cn3)cc2)ccn1 [compound 11, N-{[4-(2-methylpyridin-4-yl)phenyl]methyl}-5-phenylpyridine-2-carboxamide] | 
0.7 nM | O=C(NCc1ccc(N2CC[S+]([O-])CC2)nc1)c1ccc(-c2cccc(F)c2)cc1 [compound 8, 3′-fluoro-N-((6-(1-oxide-thiomorpholino)pyridin-3-yl)methyl)biphenyl-4-carboxamide] | 
0.26 nM | Cc1cc(CNC(=O)c2ccc(-c3cnccn3)cn2)cnc1-c1ccnc(F)c1 [compound 39, N-{[6-(2-fluoropyridin-4-yl)-5-methylpyridin-3-yl]methyl}-5-(pyrazin-2-yl)pyridine-2-carboxamide] | 
3.5 nM | Cc1cc(-c2ccc(CNC(=O)c3ccc(-c4ccccc4C)cc3)cn2)ccn1 [compound 45, 4-(2-methylphenyl)-N-{[6-(2-methylpyridin-4-yl)pyridin-3-yl]methyl}benzamide] | 
26 nM | CC(=O)N1CCN(c2ccc(C(=O)NCc3cnc(-c4ccnc(C(F)(F)F)c4)c(C)c3)nc2)CC1 [compound 48, 5-(4-Acetylpiperazin-1-yl)-N-((3-methyl-2′-(trifluoromethyl)-2,4′-bipyridin-5-yl)methyl)picolinamide] | 
 | CC(=O)N1CCN(c2ccc(C(=O)NCc3ccc(-c4ccnnc4)cc3)cc2)CC1 [compound 100] | IC50 ([2]; Table 2): > 20000 nM
34 nM | O=C(NCc1ccn(-c2ccnc(C(F)(F)F)c2)c(=O)c1)c1ccc(-c2cnccn2)cn1 [compound 56, N-((2-oxo-1-(2-(trifluoromethyl)pyridin-4-yl)-1,2-dihydropyridin-4-yl)methyl)-5-(pyrazin-2-yl)picolinamide] | 
6 nM | Cc1cccnc1-c1ccc(C(=O)NCc2ccc(-c3ccnc(C(F)(F)F)c3)nc2)nc1 [compound 73, 5-(3-methylpyridin-2-yl)-N-({6-[2-(trifluoromethyl)pyridin-4-yl]pyridin-3-yl}methyl)pyridine-2-carboxamide] | 
6.3 nM | Cc1ccc(F)cc1-c1ccc(C(=O)NCc2cnc(-c3ccnc(C(F)(F)F)c3)c(C)c2)nc1 [compound 77, 5-(5-fluoro-2-methylphenyl)-N-({5-methyl-6-[2-(trifluoromethyl)pyridin-4-yl]pyridin-3-yl}methyl)pyridine-2-carboxamide] | 
4.9 nM | Cc1cc(-c2ccc(CNC(=O)c3ccc(-c4ccc(F)cc4)cn3)cn2)ccn1 [compound 35, 5-(4-fluorophenyl)-N-{[6-(2-methylpyridin-4-yl)pyridin-3-yl]methyl}pyridine-2-carboxamide] | 
0.76 nM | Cc1cc(CNC(=O)c2ccc(-c3cnccn3)nc2)cnc1-c1ccnc(F)c1 [compound 40, N-{[6-(2-fluoropyridin-4-yl)-5-methylpyridin-3-yl]methyl}-6-(pyrazin-2-yl)pyridine-3-carboxamide] | 
6 nM | Cc1ncccc1-c1ccc(C(=O)NCc2ccc(-c3ccnc(C(F)(F)F)c3)nc2)nc1 [compound 67, 5-(2-methylpyridin-3-yl)-N-({6-[2-(trifluoromethyl)pyridin-4-yl]pyridin-3-yl}methyl)pyridine-2-carboxamide] | 
0.05 nM | Cc1cc(-c2ccc(CNC(=O)c3ccc(-c4cncnc4)cc3)cc2)ccn1 [compound 16, N-{[4-(2-methylpyridin-4-yl)phenyl]methyl}-4-(pyrimidin-5-yl)benzamide] | 
32 nM | Cc1cccnc1-c1ccc(C(=O)NCc2cnc(-c3ccnc(C(F)(F)F)c3)c(C)c2)nc1 [compound 74, N-({5-methyl-6-[2-(trifluoromethyl)pyridin-4-yl]pyridin-3-yl}methyl)-5-(3-methylpyridin-2-yl)pyridine-2-carboxamide] | 

From patent publication US9181235B2, “Substituted pyridines for modulating the WNT signaling pathway” (NOVARTIS AG, priority 2010, dated 2015)
